Measured values published in patent US7105313B2, “Cell-based drug screens for regulators of gene expression” (Amgen Inc., priority 1996, dated 2006).

Experiments:
LDLR gene expression [1] = test: Northern hybridization of RNA from the LDLR-luciferase knock-in HepG2 cell line; type: cell-based, human; conditions: LDLR luciferase knock-in HepG2 cells
Protocol: The LDLR targeting construct was introduced into HepG2 cells by electroporation. Following recovery, the cells were maintained in media supplemented 1 mg/ml G418 and 2 uM gancyclovir for 3-4 weeks until individual colonies were observed. These […] isolated and propagated as individual cultures for further characterization. Individual clones were expanded into 24 well tissue culture plates, and genomic DNA was prepared and analyzed by restriction digestion and Southern hybridization. […] This clone was expanded for further characterization and use as a reporter cell line for LDLR gene expression. To determine whether the expression of luciferase gene is regulated as the same way as the endogenous LDLR gene, RNA was prepared and analyzed by Northern hybridization. […] The cholesterol-dependent regulation is the hallmark of LDLR gene expression. As indicated, the LDLR mRNA was regulated by in the presence or absence of cholesterol, albeit in this case the LDLR mRNA level was reduced to half due to the loss of one allele, which was replaced by the luciferase gene. The use of the luciferase knock-in cell line for LDLR gene expression was further validated by the luciferase activity, which was also regulated by cholesterol as predicted.

LDLR gene expression [2] = test: Luciferase activity of the LDLR-luciferase knock-in HepG2 cell line; type: cell-based, human; conditions: LDLR luciferase knock-in HepG2 cells
Protocol: To determine whether the expression of luciferase gene is regulated as the same way as the endogenous LDLR gene, RNA was prepared and analyzed by Northern hybridization. […] The cholesterol-dependent regulation is the hallmark of LDLR gene expression. As indicated, the LDLR mRNA was regulated by in the presence or absence of cholesterol, albeit in this case the LDLR mRNA level was reduced to half due to the loss of one allele, which was replaced by the luciferase gene. The use of the luciferase knock-in cell line for LDLR gene expression was further validated by the luciferase activity, which was also regulated by cholesterol as predicted. • Aliquot 100 ul cell suspension (10^4–10^5 primary or cultured, differentiated cells) into each well of 96-well plate under sterile conditions • Add compound or extract to 10 uM final concentration • Incubate 6–18 hrs at 37° C. • Remove incubation media • Add 100 ul lysis/luciferin buffer containing 1.0% non-ionic detergent (Triton x-100), 530 uM ATP, 270 uM coA and 470 uM luciferin (Promega). • Measure luciferase-derived luminescence on automated Torcon AML-34 and 7710 Microplate Luminometer (Cambridge Technologies, Inc.) luminometers.

Compound | LDLR mRNA (LDLR gene expression [1]; presence or absence of cholesterol) | luciferase activity (LDLR gene expression [2]) | luciferase mRNA (LDLR gene expression [1]; compared with lipid-depleted media, where mRNA was elevated)
CC(C)CCC[C@@H](C)[C@H]1CC[C@H]2[C@@H]3CC=C4C[C@@H](O)CC[C@]4(C)[C@H]3CC[C@]12C [cholesterol] | regulated | regulated | 
C[C@H](CCCC(C)(C)O)[C@H]1CC[C@H]2[C@@H]3CC=C4C[C@@H](O)CC[C@]4(C)[C@H]3CC[C@]12C [25-hydroxycholesterol] |  |  | suppressed
